Reference: patent US8765779B2, “Tricyclic derivatives and their pharmaceutical use and compositions” (Cephalon, Inc., priority 2009, dated 2014)
Where a name gives a salt, the structure may show the parent alone.

biological target: T1, human 5-HT6 receptor (Homo sapiens, UniProt P50406); test: Human 5-HT6 Receptor Binding Assay ([3H]LSD displacement, scintillation beads); conditions: membranes of CHO-K1 cells with recombinant human 5-HT6, 4 nM [3H]LSD; Table 1, class symbols; read-out: h5-HT6 (Ki)
T1 construct: host or cells: CHO-K1 cells, stably transfected; membranes prepared in house
T1 sequence (P50406 whole entry): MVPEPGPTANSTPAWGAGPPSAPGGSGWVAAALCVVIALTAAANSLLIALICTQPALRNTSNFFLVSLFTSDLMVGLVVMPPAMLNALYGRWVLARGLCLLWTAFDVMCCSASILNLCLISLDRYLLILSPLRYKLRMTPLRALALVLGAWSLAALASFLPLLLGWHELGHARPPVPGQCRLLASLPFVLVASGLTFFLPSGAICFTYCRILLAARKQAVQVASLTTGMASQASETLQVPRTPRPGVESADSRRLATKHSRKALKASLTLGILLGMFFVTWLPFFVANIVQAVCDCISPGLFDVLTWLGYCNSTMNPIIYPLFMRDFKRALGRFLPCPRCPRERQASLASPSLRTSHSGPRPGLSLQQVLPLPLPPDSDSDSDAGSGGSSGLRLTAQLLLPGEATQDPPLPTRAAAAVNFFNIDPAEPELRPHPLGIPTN

Compared with [O-][S+](c1ccc2oc3c(c2c1)CCNC3)c1cccnc1OCC(F)(F)F (stereo not drawn) [Example 447], O=S(=O)(c1cccc(Br)c1)c1ccc2oc3c(c2c1)CCNC3 [Example 263, 6-[(3-bromophenyl)sulfonyl]-1,2,3,4-tetrahydro[1]benzofuro[2,3-c]pyridine] is lower in Ki: over 1000 nM for the first, under 500 nM for the second. The second binds more tightly here.

Compared with O=S(=O)(Oc1ccc2c(c1)OC1CN(C3CCCC3)CCC21)c1ccc(Cl)cc1 (stereo not drawn) [Example 801], O=S(=O)(Oc1ccc2c(c1)OC1CNCCC21)c1ccc(Cl)cc1 (stereo not drawn) [Example 635, 1,2,3,4,4a,9a-Hexahydro[1]benzofuro[2,3-c]pyridin-7-yl 4-chlorobenzenesulfonate] is lower in Ki: over 1000 nM for the first, under 500 nM for the second.

CC(=O)NCC1(C)NCCc2c1oc1cc(S(=O)(=O)c3cccc(F)c3)ccc21 (stereo not drawn) [Example 632, N-({7-[(3-fluorophenyl)sulfonyl]-1-methyl-1,2,3,4-tetrahydro[1]benzofuro[2,3-c]pyridin-1-yl}methyl)acetamide] and COCC1(C)NCCc2c1oc1cc(S(=O)(=O)c3cccc(F)c3)ccc21 (racemic) [Example 49, 7-[(3-fluorophenyl)sulfonyl]-1-(methoxymethyl)-1-methyl-1,2,3,4-tetrahydro[1]benzofuro[2,3-c]pyridine] cannot be ordered by Ki: under 500 nM for the first, under 500 nM for the second.

O=S(=O)(c1cccc(F)c1)c1ccc2c3c(oc2c1)C(CCBr)NCC3 (stereo not drawn) [Example 497] and O=S(=O)(c1cccc(F)c1)c1ccc2oc3c(c2c1)CCNC3CCBr (stereo not drawn) [Example 514] cannot be ordered by Ki: under 500 nM for the first, under 500 nM for the second.

CC12CCN(Cc3ccccc3)CC1Oc1ccc(OS(=O)(=O)Cc3ccccc3)cc12 (stereo not drawn) [Example 808] and CN1CCC2(C)c3cc(OS(=O)(=O)Cc4ccccc4)ccc3OC2C1 (stereo not drawn) [Example 809] cannot be ordered by Ki: over 1000 nM for the first, over 1000 nM for the second.

O=S(=O)(c1cc(F)cc(F)c1)c1ccc2c3c(oc2c1)C1(CCOC1)NCC3 (stereo not drawn) [Example 302] and O=S(=O)(c1cc(F)cc(F)c1)c1ccc2c3c(oc2c1)CNCC3 [Example 107, 7-(3,5-Difluoro-benzenesulfonyl)-1,2,3,4-tetrahydro-benzo[4,5]furo[2,3-c]pyridine hydrochloride] cannot be ordered by Ki: under 500 nM for the first, under 500 nM for the second.

First: O=S(=O)(c1cccc(F)c1)c1ccc2oc3c(c2c1)CCNC3C1CCOCC1 (stereo not drawn) [Example 520]
Second: COCC1NCCc2c1oc1ccc(S(=O)(=O)c3cccc(F)c3)cc21 (stereo not drawn) [Example 515]
The Ki of the first is lower: under 500 nM for the first, over 1000 nM for the second. The first binds more tightly here.

CC1(C(F)F)NCCc2c1oc1cc(S(=O)(=O)c3ccccc3)ccc21 (stereo not drawn) [Example 524] and CC1(CO)NCCc2c1oc1cc(S(=O)(=O)c3ccccc3)ccc21 (stereo not drawn) [Example 525] cannot be ordered by Ki: under 500 nM for the first, under 500 nM for the second.

O=S(=O)(c1ccc2c3c(oc2c1)CNCC3)c1ccccc1Cl [Example 230] and O=S(=O)(c1ccccc1)c1ccc2c3c(oc2c1)CNCC3 [Example 339, 7-(phenylsulfonyl)-1,2,3,4-tetrahydro[1]benzofuro[2,3-c]pyridine] cannot be ordered by Ki: under 500 nM for the first, under 500 nM for the second.

O=S(=O)(c1ccc2c(c1)OC1CNCCC21)c1cccnc1F (stereo not drawn) [Example 382] and O=S(=O)(c1ccc2c(c1)OC1CNCCC21)c1cccc(Cl)c1F (stereo not drawn) [Example 409] cannot be ordered by Ki: under 500 nM for the first, under 500 nM for the second.

First: CC(C)S(=O)(=O)c1ccc2c3c(oc2c1)CNCC3 [Example 234]
Second: CC(C)c1ccc(S(=O)(=O)c2ccc3c4c(oc3c2)CNCC4)cc1 [Example 195]
The Ki of the first is higher: over 1000 nM for the first, under 500 nM for the second.

Compared with O=S(=O)(Oc1ccc2c(c1)OC1CNCCC21)c1ccccc1 (stereo not drawn) [Example 636], O=S(=O)(Cc1ccccc1)Oc1ccc2c(c1)OC1CNCCC21 (stereo not drawn) [Example 637] is higher in Ki: under 500 nM for the first, over 1000 nM for the second.

Cc1cc(C)c(S(=O)(=O)Oc2ccc3c(c2)C2CCNCC2O3)c(C)c1 (stereo not drawn) [Example 715] and Cc1ccc(S(=O)(=O)Oc2ccc3c(c2)C2CCNCC2O3)cc1Cl (stereo not drawn) [Example 719] cannot be ordered by Ki: under 500 nM for the first, under 500 nM for the second.

Cc1cc(S(=O)(=O)c2ccc3c4c(oc3c2)CNCC4)ccc1F [Example 218] and Cc1ccc(S(=O)(=O)c2ccc3oc4c(c3c2)CCNC4)cc1 [Example 252] cannot be ordered by Ki: under 500 nM for the first, under 500 nM for the second.

COc1cc(OC)cc(S(=O)(=O)c2ccc3c(c2)OC2CNCCC32)c1 (stereo not drawn) [Example 480] and COc1cc(F)cc(S(=O)(=O)c2ccc3c(c2)OC2CNCCC32)c1 (stereo not drawn) [Example 407] cannot be ordered by Ki: under 500 nM for the first, under 500 nM for the second.

CC12CCNCC1Oc1ccc(S(=O)(=O)c3ccccc3)cc12 (stereo not drawn) [Example 62, 4a-Methyl-6-(phenylsulfonyl)-1,2,3,4,4a,9a-hexahydro[1]benzofuro[2,3-c]pyridine hydrochloride] and CC12CCNCC1Oc1ccc(S(=O)(=O)c3cc[n+]([O-])cc3)cc12 (racemic) [Example 14, 4a-methyl-6-[(1-oxidopyridin-4-yl)sulfonyl]-1,2,3,4,4a,9a-hexahydro[1]benzofuro[2,3-c]pyridine] cannot be ordered by Ki: over 1000 nM for the first, over 1000 nM for the second.

First: CC12CCNCC1Oc1cc(S(=O)(=O)c3cc[nH]c(=O)c3)ccc12 (stereo not drawn) [Example 428]
Second: CC12CCNCC1Oc1cc(S(=O)(=O)c3ccc(F)cc3)ccc12 (stereo not drawn) [Example 356]
The Ki of the first is higher: over 1000 nM for the first, 500 to 1000 nM for the second. The second binds more tightly here.

CN(C)C(=O)CC1(C)NCCc2c1oc1cc(S(=O)(=O)c3cccc(F)c3)ccc21 (single isomer, unassigned) [Example 50, 2-{7-[(3-fluorophenyl)sulfonyl]-1-methyl-1,2,3,4-tetrahydro[1]benzofuro[2,3-c]pyridin-1-yl}-N,N-dimethylacetamide] and CC(C)CC1(C)NCCc2c1oc1cc(S(=O)(=O)c3cccc(F)c3)ccc21 (racemic) [Example 36, 7-[(3-fluorophenyl)sulfonyl]-1-methyl-1-(2-methylpropyl)-1,2,3,4-tetrahydro[1]benzofuro[2,3-c]pyridine] cannot be ordered by Ki: under 500 nM for the first, under 500 nM for the second.

Going from O=S(=O)(Oc1ccc2c(c1)OC1CNCCC21)c1ccc(Oc2ccccc2)nc1 (stereo not drawn) [Example 685] to O=S(=O)(c1cccc(Oc2ccccn2)c1)c1ccc2c(c1)OC1CNCCC21 (stereo not drawn) [Example 579], the Ki falls from over 1000 nM to under 500 nM. The second binds more tightly here.

First: O=S(=O)(c1ccc2c(c1)OC1CNCCC21)c1cccc2c1OCCO2 (stereo not drawn) [Example 462]
Second: CC(C)Oc1cccc(S(=O)(=O)c2ccc3c(c2)OC2CNCCC32)c1F (stereo not drawn) [Example 483]
The Ki of the first is higher: over 1000 nM for the first, under 500 nM for the second. The second binds more tightly here.

First: CC(=O)Nc1ccc(S(=O)(=O)Oc2ccc3c(c2)OC2CNCCC32)cc1 (stereo not drawn) [Example 667]
Second: O=S(=O)(Oc1ccc2c(c1)OC1CNCCC21)c1ccc(OC(F)(F)F)cc1 (stereo not drawn) [Example 682]
The Ki of the first is higher: over 1000 nM for the first, under 500 nM for the second.

O=S(=O)(c1ccc(Oc2ccccc2)cc1)c1ccc2c3c(oc2c1)CNCC3 [Example 201] and O=S(=O)(c1ccc(Cl)cc1)c1ccc2oc3c(c2c1)CCNC3 [Example 250] cannot be ordered by Ki: under 500 nM for the first, under 500 nM for the second.

CC(=O)N(C)CC1NCCc2c1oc1ccc(S(=O)(=O)c3cccc(F)c3)cc21 (stereo not drawn) [Example 533, N-({6-[(3-Fluorophenyl)sulfonyl]-1,2,3,4-tetrahydro[1]benzofuro[2,3-c]pyridin-1-yl}methyl)-N-methylacetamide] and CC(=O)N(C)CCC1NCCc2c1oc1cc(S(=O)(=O)c3cccc(F)c3)ccc21 (racemic) [Example 538, N-(2-{7-[(3-fluorophenyl)sulfonyl]-1,2,3,4-tetrahydro[1]benzofuro[2,3-c]pyridin-1-yl}ethyl)-N-methylacetamide] cannot be ordered by Ki: under 500 nM for the first, under 500 nM for the second.

CC1(C)NCCc2c1oc1cc(S(=O)(=O)c3cncc(Cl)c3)ccc21 [Example 376] and CC1(C)NCCc2c1oc1cc(S(=O)(=O)c3cncc(Br)c3)ccc21 [Example 367] cannot be ordered by Ki: under 500 nM for the first, under 500 nM for the second.

CC(C)Oc1cccc(S(=O)(=O)c2ccc3c(c2)OC2CNCCC32)c1 (stereo not drawn) [Example 165] and CC(C)Oc1cccc(S(=O)(=O)c2ccc3c(c2)OC2C3CCNC23CCC3)c1 (stereo not drawn) [Example 622, 7-{[3-(Propan-2-yloxy)phenyl]sulfonyl}-3,4,4a,9a-tetrahydro-2H-spiro[1-benzofuro[2,3-c]pyridine-1,1′-cyclobutane]hydrochloride] cannot be ordered by Ki: under 500 nM for the first, under 500 nM for the second.

First: COc1ccc(S(=O)(=O)c2ccc3c(c2)OC2CNCCC32C)cc1 (racemic) [Example 5, 7-[(4-methoxyphenyl)sulfonyl]-4a-methyl-1,2,3,4,4a,9a-hexahydro[1]benzofuro[2,3-c]pyridine]
Second: CC12CCNCC1Oc1ccc(OS(=O)(=O)c3ccc4c(c3)OCCO4)cc12 (stereo not drawn) [Example 775]
The Ki of the first is higher: 500 to 1000 nM for the first, under 500 nM for the second.

CC1(C)CNC2(CCOCC2)c2oc3cc(S(=O)(=O)c4cccc(F)c4)ccc3c21 [Example 2, 7-[(3-fluorophenyl)sulfonyl]-4,4-dimethyl-2′,3,3′,4,5′,6′-hexahydro-2H-spiro[1-benzofuro[2,3-c]pyridine-1,4′-pyran]] and CN(C)C(=O)CC1(C)NCCc2c1oc1cc(S(=O)(=O)c3cccc(F)c3)ccc21 (single isomer, unassigned) [Example 51, 2-{7-[(3-fluorophenyl)sulfonyl]-1-methyl-1,2,3,4-tetrahydro[1]benzofuro[2,3-c]pyridin-1-yl}-N,N-dimethylacetamide] cannot be ordered by Ki: under 500 nM for the first, under 500 nM for the second.

Compared with O=S(=O)(Oc1ccc2c(c1)C1CCNCC1O2)c1ccccc1Cl (stereo not drawn) [Example 711], COc1cccc(S(=O)(=O)Oc2ccc3c(c2)C2CCNCC2O3)c1 (stereo not drawn) [Example 708] is higher in Ki: under 500 nM for the first, 500 to 1000 nM for the second. The first binds more tightly here.

COc1ccc(OC)c(S(=O)(=O)Oc2ccc3c(c2)C2CCNCC2O3)c1 (stereo not drawn) [Example 731] and Cc1ccc(S(=O)(=O)Oc2ccc3c(c2)OC2CNCCC32)cc1C (stereo not drawn) [Example 649] cannot be ordered by Ki: under 500 nM for the first, under 500 nM for the second.

Compared with O=S(=O)(Oc1ccc2c(c1)C1CCNCC1O2)c1ccc(-c2ccon2)s1 (stereo not drawn) [Example 742], COc1ccc(S(=O)(=O)Nc2ccc3c(c2)C2CCNCC2O3)cc1 (stereo not drawn) [Example 821] is higher in Ki: under 500 nM for the first, over 1000 nM for the second.

Compared with Nc1cccc(S(=O)(=O)c2ccc3oc4c(c3c2)CCNC4)c1 [Example 349], O=S(=O)(c1ccccc1)c1ccc2c3c(oc2c1)CN(Cc1ccccc1)CC3 [Example 597] is higher in Ki: under 500 nM for the first, 500 to 1000 nM for the second.

CCOc1cc(F)cc(S(=O)(=O)c2ccc3c(c2)OC2CNCCC32)c1 (stereo not drawn) [Example 401] and O=S(=O)(Nc1ccc2c(c1)C1CCNCC1O2)c1cccc(Cl)c1Cl (stereo not drawn) [Example 829] cannot be ordered by Ki: under 500 nM for the first, under 500 nM for the second.

First: Cc1c(S(=O)(=O)Nc2ccc3c(c2)C2CCNCC2O3)sc2ccc(Cl)cc12 (stereo not drawn) [Example 830]
Second: CC12CCNCC1Oc1ccc(OS(=O)(=O)CCc3ccccc3)cc12 (stereo not drawn) [Example 785]
The Ki of the first is lower: under 500 nM for the first, over 1000 nM for the second. The first binds more tightly here.
